Patent publication US20090221010A1, “Methods for Prediction and Prognosis of Cancer, and Monitoring Cancer Therapy” (priority 2005, published 2009)

Tested on: non-small cell lung cancer
Experiment: Tumor shrinkage measured radiologically in non-small cell lung cancer patients treated with Sorafenib
Format: in vivo, human
Conditions: non-small cell lung carcinoma; for mean % change in tumor size: measured radiologically

`CNC(=O)c1cc(Oc2ccc(NC(=O)Nc3ccc(Cl)c(C(F)(F)F)c3)cc2)ccn1` [Sorafenib] was tested, and the average tumor shrinkage (patients who showed stable disease, Sorafenib treatment) was 5.1%, the average tumor growth (patients whose disease progressed, Sorafenib treatment) was 20.6% and the “mean % change in tumor size” value (patients with Progressive Disease in spite of Sorafenib treatment) was 20.6%. For the same molecule, the “mean % change in tumor size” value (patients with Stable Disease on Sorafenib treatment) was −5.1%.
